Laboratory results as given in US9902713B2, “Neuroprotective compounds and use thereof” (BOARD OF REGENTS OF THE UNIVERSITY OF TEXAS SYSTEM, priority 2013, dated 2018).
Entries after “also recorded” stand apart in the source; their conditions may differ.

Assays:
[1] = Long-term treatment: weight, behavior, appearance
[2] = system: newborn hippocampal neurons; experiment: In vivo neuroprotection assay: BrdU+ newborn hippocampal neurons; set-up: species or system mice
Experimental: Results. Our most robust assay involves monitoring neuroprotection of newborn hippocampal neurons in mice because this assay gives a simultaneous readout of efficacy, acute toxicity and cell permeability. For this reason, all analogs of P7C3 were evaluated initially by infusing them directly into the left lateral ventricle of environmentally-deprived^ix live mice using a subcutaneously implanted osmotic minipump. Compounds were delivered intracerebroventricularly (ICV) over a 7 day period at a concentration of 10 μM (12 μL/d).^x Coincident with ICV administration of drug, mice were dosed daily with the thymidine analog bromodeoxyuridine (BrdU, IP, 50 mg/kg) to mark newly born hippocampal neural precursor cells. At the end of the 1 week dosing, animals were sacrificed and transcardially perfused. Brain slices were stained with antibodies to BrdU, and the number of surviving neural precursor cells was quantified by counting the number of BrdU+ cells in the hippocampal dentate gyrus. To avoid complications arising from the surgical implantation of the pump, we quantified neurogenesis in the hemisphere opposite to compound infusion. Finally, to obtain consistent data across many animals, the number of BrdU+ cells was normalized to the volume of the dentate gyrus.
In Vivo Neuroprotection Assay. Test compounds were evaluated as described previously.^2 Compounds were infused intracerebroventricularly (i.c.v.) into the left lateral ventricle of four adult (12 week old) wild-type C57BL/J6 mice by means of surgically implanted Alzet osmotic minipumps that delivered solution into animals at a constant rate of 0.5 μl/hour for 7 days. Alternatively, compounds were administered intraperitoneally twice daily. Bromodeoxyuridine (BrdU) was injected intraperitoneally at 50 mg/kg/day for six days during pump infusion. Twenty-four hours after the final BrdU administration, mice were sacrificed by transcardial perfusion with 4% paraformaldehyde at pH 7.4, and their brains were processed for immunohistochemical detection of incorporated BrdU in the SGZ. Dissected brains were immersed in 4% paraformaldehyde overnight at 4° C., then cryoprotected in sucrose before being sectioned into 40 μm thick free-floating sections. Unmasking of BrdU antigen was achieved through incubating tissue sections for two hours in 50% formamide/2×SSC at 65° C., followed by a five minute wash in 2×SSC and subsequent incubation for thirty minutes in 2M HCl at 37° C. Sections were processed for immunohistochemical staining with mouse monoclonal anti-BrdU (1:100). The number of BrdU+ cells in the entire dentate gyrus SGZ in the contralateral hemisphere (opposite side of surgically implanted pump) was quantified by counting BrdU+ cells within the SGZ and dentate gyrus in every fifth section throughout the entire hippocampus and then normalizing for dentate gyrus volume.

[3] = in vivo; settings: mouse; for Kp: brain and plasma
[4] = system: 6-OHDA-exposed rats; experiment: 6-OHDA rat model of Parkinson's disease; assay type: in vivo
Experimental: (FIG. 34A) Schematic of the experimental design illustrates that rats received a unilateral stereotactic injection of 6-OHDA or saline in the medial forebrain bundle (MFB), followed by daily injection of P7C3-S243 for 7 days. Open field and cylinder tests were performed 8-10 days after 6-OHDA injection, and the amphetamine circling test was conducted on day 11. Rats were transcardially perfused on day 14, and brain tissue was processed for neurochemistry and immunohistochemistry analysis. […] Scale bars=250 μm. […] No difference was found in the concentration of serotonin in all groups (one-way ANOVA). For all experiments in FIG. 34, n=10 per group except for the HPLC analysis, for which n=7.
FIGS. 36A-36F show pretreatment with P7C3-A20 or P7C3-S243 (10 mg/kg/day) protects rats from 6-OHDA toxicity. (FIG. 36A) Schematic of the experimental design illustrates that rats were pretreated for 3 days with either P7C3-A20 or P7C3-S243, and then administered either 6-OHDA or saline by stereotactic injection in the medial forebrain bundle (MFB), followed by 7 more days of treatment with either P7C3-A20 or P7C3-S243. Open field and cylinder tests were performed between days 8-10, and the amphetamine circling test was performed on day 11. Rats were transcardially perfused on day 14, and brain tissue was processed for neurochemistry and immunohistochemistry analysis. […] Scale bars=250 μm.
FIGS. 37A-37B show treatment of 6-OHDA-exposed rats with P7C3-S243 preserves both TH and NeuN staining, illustrating that TH staining corresponds to neuronal survival. […] DAPI was used as a nuclear marker.

[5] = system: cultured cortical neurons; experiment: MPP+ toxicity in cultured neurons (MTT); assay type: cell-based; settings: 10 μM compound, 10 μM MPP+, 24 hrs
Experimental: (§1) FIGS. 35A-35B show P7C3-S243 and P7C3-A20 protect cultured hippocampal and cortical neurons from MPP^+ toxicity. […] Experiments were performed 2 independent times with 8-12 replicates of each sample both times.

[6] = system: cultured hippocampal neurons; experiment: MPP+ toxicity in cultured neurons (MTT); assay type: cell-based; settings: 10 μM compound, 10 μM MPP+, 24 hrs
Experimental: as §1

[7] = system: degenerating axons; experiment: Silver staining of degenerating axons after blast-mediated TBI
Experimental: Optical densitometry of silver-stained tissue was used to quantify the magnitude of staining, such that greater impedance of light through the section reflected greater axonal degeneration (FIG. 18B).
All brains were stored in a freezer at −80° C. before sectioning. […] Every 1st-12th sections of each series of 12 sections (interval: 480 μm) were collected separately. All sections were stored free-floating in FD sections storage solution (FD Neurotechnologies, Columbia, Md.) at −20° C. before further processing.
For silver staining, sections were collected in 0.1 M phosphate buffer (pH 7.4) containing 4% paraformaldehyde and fixed for 5 days at 4° C. Sections were then processed for the detection of neurodegeneration with FD NeuroSilver Kit II (FD Neurotechnologies) according to the manufacturer's instructions (for detailed procedures, cf. the manual of PK301, available at www.fdneurotech.com). Subsequently, all sections were mounted on slides, dehydrated in ethanol, cleared in xylene, and coverslipped with Permount (Fisher Scientific, Fair Lawn, N.J.).
The microscope light intensity and camera exposure were held constant. The operator outlined areas of interest around specific brain regions and recorded the intensity of light passing through the slide. Degenerating axons allowed less light to pass through the section due to their uptake of silver stain, so lower light intensity correlated with increased degeneration. Operator performing quantification was blinded to condition and treatment.

[8] = system: newborn hippocampal neurons; settings: previously reported; cited from earlier work
[9] = system: blast-injured mice; experiment: Foot slip assay after blast-injury; assay type: in vivo; settings: 28 days after injury, daily oral 6 mg/kg/day from 24 hours
Excerpt: Because the cerebellum controls coordination, we next assayed their balance and coordination, using standard procedures (Luong et al., 2011). Mice were trained to cross an 80 cm long beam over 2 days, and then sham or blast-injured on day 3. […] Mice were videotaped during the test, and then analyzed for the number of foot slips by observers blind to treatment group. […] Thus, protective efficacy for cerebellar axonal degeneration after injury by (−)-P7C3-S243 correlated with preservation of motor coordination.
Foot slip assay. We used standard procedures described by Luong et al. (2011) to measure motor balance coordination. During the training period, mice were trained to cross the 80 cm beam to enter a black box with nesting material 3 times a day over 2 consecutive days. Mice were then sham-or blast-Injured on the next day. 24 hrs after injury, daily administration with (−)-P7C3-S243 or vehicle was initiated. Animals were then tested 7 and 28 days after injury. Mice performance was videotaped during the test and foot slips were analyzed by an observer blind to condition and treatment group.

[10] = molecular target: hERG (Homo sapiens, UniProt Q12809); experiment: hERG patch clamp assay
hERG, sequence (Q12809 whole entry): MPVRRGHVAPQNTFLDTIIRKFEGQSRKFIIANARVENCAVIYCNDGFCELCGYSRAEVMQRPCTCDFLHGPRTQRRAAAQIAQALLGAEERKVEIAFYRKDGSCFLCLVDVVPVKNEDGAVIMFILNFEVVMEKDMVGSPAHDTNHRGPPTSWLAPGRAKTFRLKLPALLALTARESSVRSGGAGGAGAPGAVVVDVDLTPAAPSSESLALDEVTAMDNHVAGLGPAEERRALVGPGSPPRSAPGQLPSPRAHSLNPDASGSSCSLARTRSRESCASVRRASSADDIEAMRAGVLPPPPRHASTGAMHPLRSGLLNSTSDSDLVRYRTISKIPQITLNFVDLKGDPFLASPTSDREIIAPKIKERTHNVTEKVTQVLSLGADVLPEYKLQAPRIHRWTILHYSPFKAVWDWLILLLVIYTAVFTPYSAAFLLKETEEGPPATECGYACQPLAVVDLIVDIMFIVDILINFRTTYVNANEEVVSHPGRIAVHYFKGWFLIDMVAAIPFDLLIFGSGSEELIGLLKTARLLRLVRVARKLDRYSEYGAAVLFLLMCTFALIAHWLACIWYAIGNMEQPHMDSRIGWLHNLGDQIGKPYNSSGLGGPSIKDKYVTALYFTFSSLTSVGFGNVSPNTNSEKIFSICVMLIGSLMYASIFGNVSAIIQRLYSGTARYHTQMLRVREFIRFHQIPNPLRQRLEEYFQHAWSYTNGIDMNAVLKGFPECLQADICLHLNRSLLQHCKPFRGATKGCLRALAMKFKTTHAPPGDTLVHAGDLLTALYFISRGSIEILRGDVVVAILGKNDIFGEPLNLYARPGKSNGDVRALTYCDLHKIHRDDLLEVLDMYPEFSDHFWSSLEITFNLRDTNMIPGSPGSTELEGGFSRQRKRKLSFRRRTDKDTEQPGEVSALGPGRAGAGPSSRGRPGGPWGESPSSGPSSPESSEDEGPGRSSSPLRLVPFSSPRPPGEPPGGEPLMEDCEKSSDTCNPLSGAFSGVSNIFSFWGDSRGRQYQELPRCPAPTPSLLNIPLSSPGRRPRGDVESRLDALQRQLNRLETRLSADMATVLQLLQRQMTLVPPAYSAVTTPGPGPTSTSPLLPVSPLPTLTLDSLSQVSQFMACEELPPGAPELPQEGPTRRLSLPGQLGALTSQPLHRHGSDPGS

[11] = 10 mg/kg/day, 7 days after 6-OHDA
[12] = 10 mg/kg/day, pretreated 3 days plus 7 more days
[13] = single enantiomers, 3 mg/kg/day

For `COc1cccc(NCC(F)Cn2c3ccc(Br)cc3c3cc(Br)ccc32)n1` (racemic) [P7C3-S243, N-(3-(3,6-dibromo-9H-carbazol-9-yl)-2-fluoropropyl)-6-methoxypyridin-2-amine], the “impact on weight, behavior or appearance” value ([1]; up to 10 mg/kg/d for 21 d) was “no negative impact”, the “activity relative to P7C3 and P7C3-A20” value ([2]; ICV, 1 week, FIG. 1) was “superior to P7C3 and comparable to P7C3-A20” and the “number of surviving newborn hippocampal neurons” value ([2]; ICV, 1 week, FIG. 1) was “approximately doubled”. The “dose at ceiling of efficacy” value ([2]; administered intraperitoneally) was 10 mg/kg/day, the “dose at which active” value ([2]; administered intraperitoneally) was 1 mg/kg/day and the Kp ([3]; ip, 10 mg/kg) was 0.45. It also gave a Kp ([3]; ip, 20 mg/kg) of 0.28, a Kp ([3]; iv, 10 mg/kg) of 1.1 and a Kp ([3]; po, 20 mg/kg) of 0.81. The bioavailability ([3]; brain, po, 20 mg/kg) was 58%, the bioavailability ([3]; plasma, ip, 20 mg/kg) was 90% and the bioavailability ([3]; plasma, po, 20 mg/kg) was 38%. The “TH and NeuN immunofluorescence of the SNc” value ([4]; 10 mg/kg/day for 7 days) was “preservation of co-localized tyrosine hydroxylase (TH) and NeuN”, the “TH-positive cells compared to 6-OHDA-Vehicle group” value [4, 11] was “significant increase” and the “ipsilateral rotations (amphetamine-circling) of 6-OHDA+vehicle animals compared to 6-OHDA+compound animals” value [4, 11] was “significant increase”. The “total distance traveled (open field) of 6-OHDA+vehicle animals compared to 6-OHDA+compound animals” value [4, 11] was “significant decrease”, the “total rearings (cylinder test) of 6-OHDA+vehicle animals compared to 6-OHDA+compound animals” value [4, 11] was “significant decrease” and the “striatal concentration of dopamine, DOPAC, and homovanillic acid compared to 6-OHDA-Vehicle group” value ([4]; 10 mg/kg/day, 7 days after 6-OHDA, HPLC) was “significant increase”. For the same molecule, the “TH-positive cells compared to 6-OHDA-Vehicle group” value [4, 12] was “significant increase”, the “ipsilateral rotations (amphetamine-circling) of 6-OHDA+vehicle animals compared to 6-OHDA+compound animals” value [4, 12] was “significant increase” and the “total distance traveled (open field) of 6-OHDA+vehicle animals compared to 6-OHDA+compound animals” value [4, 12] was “significant decrease”. For the same molecule, the “total rearings (cylinder test) of 6-OHDA+vehicle animals compared to 6-OHDA+compound animals” value [4, 12] was “significant decrease”, the “protection (MTT)” value [5] was “significant protection” and the “protection (MTT)” value [6] was “significant protection”. The “axonal degeneration, cerebellar molecular layer” value ([7]; 0.3 mg/kg/day) was “Extensive axonal degeneration”, the “silver staining in CA1, corpus callosum, thalamus, cortex, olfactory bulb, striatum, dentate gyrus, cerebellum” value ([7]; 0.3 mg/kg/day) was “prominent silver staining of degenerating axons” and the “axonal degeneration, cerebellar molecular layer” value ([7]; 3 and 30 mg/kg/day) was “blocked”. For the same molecule, the “axonal degeneration, CA1 stratum radiatum” value ([7]; 3 and 30 mg/kg/day from 24 hours after injury) was “blocked” and the “axonal and cellular degeneration, thalamus, cortex, CA1” value ([7]; 14 days after injury, treatment from 24 hours, FIG. 7) was “ameliorated”.

For `COc1cccc(NCC(F)Cn2c3ccc(Br)cc3c3cc(Br)ccc32)c1` (stereo not drawn) [P7C3-A20, N-(3-(3,6-dibromo-9H-carbazol-9-yl)-2-fluoropropyl)-3-methoxyaniline], the “impact on weight, behavior or appearance” value ([1]; up to 40 mg/kg/d for 21 d) is listed as “no negative impact”, the “activity in the in vivo hippocampal neuroprotection assay (previous studies)” value [8] is listed as “substantially improved activity” and the “TH-positive cells compared to 6-OHDA-Vehicle group” value [4, 12] is listed as “significant increase”. For the same molecule, the “ipsilateral rotations (amphetamine-circling) of 6-OHDA+vehicle animals compared to 6-OHDA+compound animals” value [4, 12] was “significant increase”, the “total distance traveled (open field) of 6-OHDA+vehicle animals compared to 6-OHDA+compound animals” value [4, 12] was “significant decrease” and the “total rearings (cylinder test) of 6-OHDA+vehicle animals compared to 6-OHDA+compound animals” value [4, 12] was “significant decrease”. The “protection (MTT)” value [6] was “significant protection”.

With `COc1cccc(NCC(F)Cn2c3ccc(Br)cc3c3cc(Br)ccc32)n1` (single isomer, unassigned; (-)) [(−)-P7C3-S243, (−)-N-(3-(3,6-dibromo-9H-carbazol-9-yl)-2-fluoropropyl)-6-methoxypyridin-2-amine] the “neuroprotective activity of pure enantiomers” value ([2]; ICV 0.5 μL/h, 7 days, FIG. 2) was “highly active; also recorded: high activity”, the “increase in number of foot slips” value [9] was “normalized” and the inhibition at 50 µM [10] was less than 15%. For the same molecule, the “axonal degeneration, CA1 stratum radiatum” value [7, 13] was “complete protection from axonal degeneration”, the “axonal degeneration, cerebellar molecular layer” value [7, 13] was “blocked” and the “silver staining in CA1, corpus callosum, thalamus, cortex, olfactory bulb, striatum, dentate gyrus, cerebellum” value [7, 13] was “protected from axonal degeneration”.
